Here are results for 4 molecules from US10046046B2, “Amino sphingoglycolipid analogues” (Victoria Link Limited, priority 2014, dated 2018).

The subject of one data set is CD11c+ dendritic cells. The data set is described as follows: CD86 expression on splenic dendritic cells. In kind it is in vivo, C57BL/6 mice. Particulars: 0.571 nmol intravenously, spleens removed 20 h later, n=3, FIG. 3. As for the experimental part:
Groups of C57BL/6 mice (n=3) are injected intravenously with 0.571 nmol of the indicated compounds and then the spleens removed 20 h later for the analysis of CD86 expression on CD11c^+ dendritic cells by antibody labelling and flow cytometry. Mean fluorescence index (MFI)±SEM are presented. *P<0.05, *P<0.01, ***P<0.001
Antibody staining and flow cytometry is used to examine the expression of maturation markers on dendritic cells in the spleen following injection of compounds of the invention (0.23 nmol). Splenocyte preparations are prepared by gentle teasing of splenic tissue through gauze in Iscove's Modified Dulbecco's Medium with 2 mM glutamine, 1% penicillin-streptomycin, 5×10^-5 M 2-mercapto-ethanol and 5% fetal bovine serum (all Invitrogen, Auckland, New Zealand), followed by lysis of red blood cells with RBC lysis buffer (Puregene, Gentra Systems, Minneapolis, Minn., USA). Antibody staining is performed in PBS 2% fetal bovine serum and 0.01% sodium azide. The anti-FcgRII monoclonal antibody 2.4G2 is used at […] to inhibit non-specific staining. Monoclonal antibodies (all BD Biosciences Pharmingen, San Jose, Calif., USA) are used to examine expression of the maturation markers CD40, CD80 and CD86 on CD11c+ dendritic cells.

The subject of data set [1] is NKT cell activity (CD86 on B cells in the peripheral blood). The data set is described as follows: CD86 expression on peripheral blood B cells as readout of NKT cell activity. In kind it is in vivo, C57BL/6 mice. Particulars: 0.23 nmol intravenously, blood collected 20 h later, n=3, FIG. 1. As for the experimental part:
Groups of C57BL/6 mice (n=3) are injected intravenously with 0.23 nmol of the indicated glycolipid compounds and then the blood samples collected 20 h later for the analysis of CD86 expression on CD45 (B220)+B cells by antibody labelling and flow cytometry. Mean fluorescence index (MFI)±SEM are presented, *P<0.05, *P<0.01, ***P<0.001.
Each compound of the invention is supplied as formulated product (see example 3), and diluted in phosphate-buffered saline (PBS) for injection (0.23 nmol/mouse) by intravenous injection into the lateral tail vein. In humans the expected therapeutic dose lies in the 50-4800 (μg/m^2) range (Giaccone, Punt et al. 2002). Note, 0.23 nmol in a mouse is a human equivalent dose of 30 μg/m^2 for α-GalCer.
All antibody labelling is performed on ice in FACS buffer (PBS supplemented with 1% FCS, 0.05% sodium azide, and 2 mM EDTA). Non-specific FcR-mediated antibody staining is blocked by incubation for 10 min with anti-CD16/32 Ab (24G2, prepared in-house from hybridoma supernatant). Flow cytometry is performed on a BD Biosciences FACSCalibur or BD LSRII SORP flow cytometer with data analysis using FlowJo software (Tree Star, Inc., OR, USA).
Antibody staining and flow cytometry are used to examine the expression of the maturation markers CD86 on peripheral blood B cells following injection of compounds of the invention. […]

Data set [2] deals with SIINFEKL-specific T cells. The data set is described as follows: Peptide-specific T cell proliferation in vivo (OT-1 transfer). Particulars: intravenous vaccination one day after transfer of 10,000 OT-1 cells, equivalent molar dose of SIINFEKL, blood after seven days, FIG. 2. The arrangement: species or system C57BL/6 mice. As for the experimental part:
The compounds are injected to give the equivalent molar dose of SIINFEKL (SEQ ID NO: 262) peptide in each case. To increase sensitivity of the assay, all mice are initially donated a cohort of 10,000 SIINFEKL-specific T cells from a transgenic mouse encoding a T cell receptor for this antigen (OT-1 mice) by intravenous injection of the cells one day before the vaccines are administered. […] It is therefore possible to enumerate SIINFEKL-specific T cells in blood by flow cytometry using antibodies for CD45.1 together with antibodies for the transgenic T cell receptor (Vα2). Control animals (naïve) are injected with the diluent phosphate-buffered saline (PBS). […] Each dot represents a different animal; mean per treatment group±SEM are presented. *P<0.05, *P<0.01, ***P<0.001
Pooled lymph node cell suspensions are prepared from animals of a cross between OT-1 mice, which express a transgenic T cell receptor (TCR) specific for the ovalbumin epitope SIINFEKL (SEQ ID NO: 262)-in the context of H-2K^b molecules, and B6.SJL-Ptprc^a Pepc^b/BoyJ mice, which are congenic with C57BL/6 mice for the CD45.1^+ marker. The samples are enriched for CD8^+ cells using antibody coated magnetic beads (Miltenyi), and then transferred into C57BL/6 mice (1×10^4 per mouse). Groups of recipient animals (n=5) are immunized with compounds of the invention one day later. […]

For data set [3] the following is noted: Ebensen, Link et al. 2007; cited from earlier work.
The test system of a further data set is human NKT cells. To be noted: Kawano, Cui et al. 1997; cited from earlier work.
Another data set deals with mouse NKT cells. Particulars: Kawano, Cui et al. 1997; cited from earlier work.
Data set [4] has as its system syngeneic splenocytes loaded ex vivo with SIINFEKL
The data set is described as follows: Peptide-specific T cell-mediated cytotoxicity in vivo (VITAL assay). To be noted: 0.571 nmol intravenously, targets injected 7 days after vaccination, 5 animals per group, FIG. 4. More on the design: species or system mice. As for the experimental part:
The compounds are injected to give the equivalent molar dose of SIINFEKL (SEQ ID NO: 262) peptide, in each case of 0.571 nmol. Flow cytometry is used to assess the killing of target cells comprised of syngeneic splenocytes loaded ex vivo with 5 μM SIINFEKL (SEQ ID NO: 262) injected intravenously 7 days after vaccination. To discriminate the targets from host tissue, the injected cells are labelled with the fluorescent dye carboxyfluorescein succinimidyl ester (CFSE). A cohort syngeneic splenocytes (without peptide) labelled with the fluorescent dye cell tracker orange are also injected to serve as controls. Killing is defined as the percentage of peptide-loaded targets killed relative to control cells. Each treatment group contained 5 animals. Control animals are injected with the diluent phosphate-buffered saline (PBS). […] Mean percentage of killing per group±SEM are shown. ***p<0.001
The cytotoxic capacity of induced CD8^+ T cell responses is measured by VITAL assay (Hermans, Silk et al. 2004). […] Specific lysis of the peptide-loaded targets is monitored by flow cytometry of blood or spleen samples 24 h later. Mean percent survival of peptide-pulsed (CFSE+) targets is calculated relative to that of the control population (CTO+), and cytotoxic activity is expressed as percent specific lysis (100−mean percent survival of peptide-pulsed targets).

The next data set deals with B16.OVA melanoma cells. The data set is described as follows: Anti-tumour activity against subcutaneous B16.OVA tumours. In kind it is in vivo, C57BL/6 mice. Particulars: 0.571 nmol intravenously five days after tumour challenge, n=5, FIG. 5. As for the experimental part: Progression of subcutaneous B16.OVA tumours is monitored in animals treated five days after tumour challenge with intravenous CI-017 or CN159 peptide and α-GalCer or with PBS. The mean tumour sizes per group (n=5)±SEM are shown.
Groups of C57BL/6 mice (n=5) receive a subcutaneous injection into the flank of 1×10^5 B16.OVA melanoma cells, which express a cDNA encoding the chicken ovalbumin (OVA) sequence. The different groups are treated five days later by intravenous injection of one of the following; CI-017 (0.571 nmol), peptide CN159 (0.571 nmol) mixed with α-GalCer (0.571 nmol), or PBS. Mice are monitored for tumour growth every 3-4 days, and tumour size for each group calculated as the mean of the products of bisecting diameters (±SEM). Measurements are terminated for each group when the first animal develops a tumour exceeding 200 mm^2.

“Also recorded” adds a separate entry of the source. Square brackets hold non-standard residues; d marks the D form. Peptide text beside a SMILES is read from it. * marks the point of attachment. ξ: configuration not given here. X1 = CCCCCCCCCCCCCCCCCCCCCCCCCC(=O)N[C@@H](CO[C@H]1OC(CNC(=O)OCOC(=O)CC/C(C)=N/OCC(=O)*)[C@H](O)[C@H](O)C1O)[C@H](O)[C@H](O)CCCCCCCCCCCCCC; ξF = NC(Cc1ccccc1)C(=O)O

Turning to `CCCCCCCCCCCCCCCCCCCCCCCCCC(=O)N[C@@H](CO[C@H]1OC(CN)[C@H](O)C(O)C1O)[C@H](O)[C@H](O)CCCCCCCCCCCCCC` (some centres unmarked) [CN168], the “CD86 expression on CD11c+ dendritic cells in spleen (mean fluorescence index)” value in the data set with CD11c+ dendritic cells is listed as “potently activated dendritic cells”.
Regarding `CCCCCCCCCCCCCCCCCCCCCCCCCC(=O)N[C@@H](CO[C@H]1OC(CNC(=O)OCOC(=O)CC/C(C)=N/OCC(=O)N[C@@H](Cc2ccccc2)C(=O)NC(Cc2ccccc2)C(=O)N[C@@H](CCCNC(=N)N)C(=O)N[C@@H](CCCCN)C(=O)N[C@@H](CO)C(=O)N[C@H](C(=O)N[C@H](C(=O)N[C@@H](CC(N)=O)C(=O)N[C@@H](Cc2ccccc2)C(=O)N[C@@H](CCC(=O)O)C(=O)N[C@@H](CCCCN)C(=O)N[C@@H](CC(C)C)C(=O)O)[C@@H](C)CC)[C@@H](C)CC)[C@H](O)[C@H](O)C1O)[C@H](O)[C@H](O)CCCCCCCCCCCCCC` (stereo partly drawn) [CN169, (2S,3S,4R)-1-(6-Deoxy-6-(4-((2-(FFRKSIINFEKL)-2-(oxo)ethoxyimino)pentanoyloxy)methoxycarbonylamino)-α-D-galactopyranosyloxy)-2-hexacosanoylamino-3,4-octadecandiol] (X1-F[ξF]RKSIINFEKL-OH), in data set [1], the “CD86 expression on CD45 (B220)+ B cells in peripheral blood (mean fluorescence index)” value was “potently activate B cells”. Also, the “SIINFEKL-specific T cells (Vα2+ CD45.1+) in blood” value in data set [2] is listed as “increased antigen-specific T cell response; also recorded: larger population of peptide-specific T cells; also recorded: larger population of SIINFEKL-specific T cells”.
For `CCCCCCCCCCCCCCCCCCCCCCCCCC(=O)N[C@@H](CO[C@H]1O[C@H](CO)[C@H](O)[C@H](O)[C@H]1O)[C@H](O)[C@H](O)CCCCCCCCCCCCCC` [α-GalCer, α-Galactosylceramide], the Solubility entry in data set [3] is reported as “poor solubility”. In the data set with human NKT cells, the “Activation of human NKT cells” value is “potently activates”. The “Activation of mouse NKT cells” value with mouse NKT cells is given as “potently activates”.
With “(2S,3S,4R)-1-(6-Deoxy-6-(4-β-(FFRKSIINFEKL)-3-oxopropyl)-1H-1,2,3-triazol-1-yl)hexanoyl)-(N-Val-Cit-4-aminobenzyloxycarbonylamino)-1-(α-D-galactopyranosyloxy))-2-hexacosanoylamino-3,4-octadecandiol [CI-017]”, the “SIINFEKL-specific cytotoxicity (percentage of peptide-loaded targets killed relative to control cells)” value in data set [4] is recorded as “greater SIINFEKL (SEQ ID NO: 262)-specific cytotoxicity”. Moreover, in the data set on B16.OVA melanoma cells, the “Anti-tumour activity (mean tumour size)” value is listed as “superior anti-tumour activity”.
